pIC50: −log10 of the molar value.
Tests used:
Type in all cases: cell-based
SVCT1 [1] = target: T1, SVCT1 (Homo sapiens, UniProt Q9UHI7); assay: inhibition of […]-vitamin C uptake in SVCT1-expressing […] cells (urate uptake IC50 […])
T1 construct: gene SLC23A1

SVCT1 [2] = target: T1, SVCT1; assay: as above; remark: listed apart in the source
SVCT1 [3] = target: T1, SVCT1; assay: as above; remark: listed apart in the source
GLUT9a = target: T2, GLUT9a (Homo sapiens, UniProt Q9NRM0); assay: [[…]-14C]-urate uptake in GLUT9a-expressing cells, high-potassium buffer
T2 construct: gene SLC2A9; full-length human GLUT9a/SLC2A9a WT in pEGFP-N1
T2 sequence (Q9NRM0 1-540): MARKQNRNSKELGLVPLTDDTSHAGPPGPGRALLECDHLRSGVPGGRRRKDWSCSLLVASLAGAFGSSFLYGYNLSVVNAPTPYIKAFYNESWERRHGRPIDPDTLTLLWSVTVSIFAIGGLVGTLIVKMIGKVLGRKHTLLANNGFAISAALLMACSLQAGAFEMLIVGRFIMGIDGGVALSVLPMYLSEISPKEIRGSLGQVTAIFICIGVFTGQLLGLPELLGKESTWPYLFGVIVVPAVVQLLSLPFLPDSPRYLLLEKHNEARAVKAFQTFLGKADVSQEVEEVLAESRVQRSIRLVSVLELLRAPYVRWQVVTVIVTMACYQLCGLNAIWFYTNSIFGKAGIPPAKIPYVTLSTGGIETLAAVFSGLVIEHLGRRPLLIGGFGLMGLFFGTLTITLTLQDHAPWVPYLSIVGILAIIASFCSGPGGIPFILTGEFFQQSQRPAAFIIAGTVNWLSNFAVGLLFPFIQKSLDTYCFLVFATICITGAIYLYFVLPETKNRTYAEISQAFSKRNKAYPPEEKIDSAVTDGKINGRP

URAT1 = target: T3, URAT1 (Homo sapiens, UniProt Q96S37); assay: [[…]-14C]-urate uptake in URAT1-expressing HEK293 cells
T3 construct: gene SLC22A12; full-length human URAT1 WT in pEGFP-C1
T3 sequence (Q96S37 1-553): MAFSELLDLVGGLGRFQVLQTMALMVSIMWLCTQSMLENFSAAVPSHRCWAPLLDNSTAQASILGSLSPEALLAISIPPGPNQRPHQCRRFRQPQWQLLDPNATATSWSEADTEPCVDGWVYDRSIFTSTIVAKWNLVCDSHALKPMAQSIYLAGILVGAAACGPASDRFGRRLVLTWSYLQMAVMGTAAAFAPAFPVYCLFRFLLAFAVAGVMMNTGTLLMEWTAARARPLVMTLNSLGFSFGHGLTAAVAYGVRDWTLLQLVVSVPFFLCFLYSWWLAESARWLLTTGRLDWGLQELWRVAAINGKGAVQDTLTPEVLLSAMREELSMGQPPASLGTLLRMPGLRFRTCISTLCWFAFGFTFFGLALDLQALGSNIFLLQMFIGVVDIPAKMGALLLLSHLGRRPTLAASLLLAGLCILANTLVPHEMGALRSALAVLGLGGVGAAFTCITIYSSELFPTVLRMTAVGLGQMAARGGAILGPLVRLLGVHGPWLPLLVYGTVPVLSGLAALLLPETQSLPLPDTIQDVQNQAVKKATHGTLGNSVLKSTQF

ABCG2 = target: T4, ABCG2 (Homo sapiens, UniProt Q9UNQ0)
T4 construct: EGFP-ABCG2 in plasma membrane vesicles from 293A cells
T4 sequence (Q9UNQ0 1-655): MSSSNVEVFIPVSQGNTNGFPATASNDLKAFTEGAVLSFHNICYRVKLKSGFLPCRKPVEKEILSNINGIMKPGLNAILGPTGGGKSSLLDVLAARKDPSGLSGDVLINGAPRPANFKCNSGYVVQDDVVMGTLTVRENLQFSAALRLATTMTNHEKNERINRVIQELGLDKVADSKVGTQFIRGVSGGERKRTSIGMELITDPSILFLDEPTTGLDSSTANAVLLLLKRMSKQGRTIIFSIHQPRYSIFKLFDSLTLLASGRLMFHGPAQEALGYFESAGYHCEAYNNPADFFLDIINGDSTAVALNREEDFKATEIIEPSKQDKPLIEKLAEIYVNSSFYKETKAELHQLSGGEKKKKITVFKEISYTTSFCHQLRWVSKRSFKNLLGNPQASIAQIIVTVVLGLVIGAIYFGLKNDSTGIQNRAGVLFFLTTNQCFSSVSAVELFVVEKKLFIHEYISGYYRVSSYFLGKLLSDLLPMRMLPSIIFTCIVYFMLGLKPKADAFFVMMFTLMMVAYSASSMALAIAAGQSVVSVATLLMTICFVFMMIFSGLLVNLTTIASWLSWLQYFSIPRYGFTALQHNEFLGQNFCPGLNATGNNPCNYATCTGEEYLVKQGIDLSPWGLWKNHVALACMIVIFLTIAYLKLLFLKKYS

SVCT1 [4] = target: T1, SVCT1; assay: […]-vitamin C uptake and inhibition of […]-urate uptake in SVCT1-expressing HEK293 cells
Svct1 [5] = target: T5, Svct1 (Mus musculus, UniProt Q9Z2J0); assay: […]-vitamin C uptake and inhibition of […]-urate uptake in Svct1-expressing HEK293 cells
T5 construct: gene Slc23a1; mouse Svct1 WT, EGFP fusion
T5 sequence (Q9Z2J0 whole entry, the tested form may be a part): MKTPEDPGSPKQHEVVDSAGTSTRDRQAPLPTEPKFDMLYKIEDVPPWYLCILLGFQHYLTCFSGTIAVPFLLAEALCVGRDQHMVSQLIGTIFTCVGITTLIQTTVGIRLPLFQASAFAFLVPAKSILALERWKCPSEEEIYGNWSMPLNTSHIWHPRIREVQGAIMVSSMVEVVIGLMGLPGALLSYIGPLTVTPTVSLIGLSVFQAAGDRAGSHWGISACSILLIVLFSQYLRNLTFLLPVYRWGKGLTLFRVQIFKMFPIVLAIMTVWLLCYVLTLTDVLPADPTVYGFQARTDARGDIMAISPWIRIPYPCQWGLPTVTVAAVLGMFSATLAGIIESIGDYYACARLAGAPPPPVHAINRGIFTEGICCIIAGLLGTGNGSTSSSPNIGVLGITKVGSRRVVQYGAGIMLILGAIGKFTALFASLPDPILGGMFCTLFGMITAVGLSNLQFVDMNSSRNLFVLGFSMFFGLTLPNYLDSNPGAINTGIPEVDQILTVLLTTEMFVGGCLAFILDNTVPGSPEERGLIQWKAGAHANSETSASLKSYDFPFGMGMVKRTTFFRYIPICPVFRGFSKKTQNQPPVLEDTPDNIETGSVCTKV

T1 sequence (Q9UHI7 whole entry): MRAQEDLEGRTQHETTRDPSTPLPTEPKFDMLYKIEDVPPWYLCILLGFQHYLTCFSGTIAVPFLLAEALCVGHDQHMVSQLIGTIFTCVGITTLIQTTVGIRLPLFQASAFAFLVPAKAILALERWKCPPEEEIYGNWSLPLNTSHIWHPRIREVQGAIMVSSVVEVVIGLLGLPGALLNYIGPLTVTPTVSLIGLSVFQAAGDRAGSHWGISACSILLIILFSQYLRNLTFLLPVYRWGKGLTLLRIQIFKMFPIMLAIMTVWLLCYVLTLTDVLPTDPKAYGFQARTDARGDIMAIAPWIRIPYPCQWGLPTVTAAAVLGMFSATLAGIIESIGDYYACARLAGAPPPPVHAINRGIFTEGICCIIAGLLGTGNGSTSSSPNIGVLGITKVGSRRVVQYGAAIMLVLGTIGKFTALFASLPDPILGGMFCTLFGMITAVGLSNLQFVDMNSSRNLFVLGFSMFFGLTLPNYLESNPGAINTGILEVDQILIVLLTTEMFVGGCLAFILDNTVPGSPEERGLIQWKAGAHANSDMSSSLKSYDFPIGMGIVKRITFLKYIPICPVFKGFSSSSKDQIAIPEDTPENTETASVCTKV

SMILES: CCc1oc2cc(O)ccc2c1C(=O)c1cc(Br)c(O)c(Br)c1 [6-OH BBR, 6-hydroxybenzbromarone]
- pIC50 (SVCT1 [1]): 5.54

SMILES: CCc1oc2ccccc2c1C(=O)c1cc(Br)c(O)c(Br)c1 [BBR, benzbromarone]
- pIC50 (SVCT1 [2]): 5.08

SMILES: O=C(c1cc(Cl)c(O)c(Cl)c1)N1CS(=O)(=O)c2ccccc21 [DU, dotinurad]
- pIC50 (SVCT1 [3]): 4.93

SMILES: O=c1[nH]c(=O)c2[nH]c(=O)[nH]c2[nH]1 [urate]
- [8-14C]-urate uptake in GLUT9a-expressing cells, high-potassium buffer (GLUT9a): Even under appropriate experimental conditions in which urate transport activities were detected, neither URAT1, GLUT9, nor ABCG2 could transport vitamin C
- [8-14C]-urate uptake in URAT1-expressing HEK293 cells (URAT1): Even under appropriate experimental conditions in which urate transport activities were detected, neither URAT1, GLUT9, nor ABCG2 could transport vitamin C
- [8-14C]-urate vesicle transport assay with ABCG2-expressing membrane vesicles (ABCG2): Even under appropriate experimental conditions in which urate transport activities were detected, neither URAT1, GLUT9, nor ABCG2 could transport vitamin C

SMILES: O=C1O[C@H]([C@@H](O)CO)C(O)=C1O [vitamin C]
- pIC50 (SVCT1 [4]): 4.02
- pIC50 (Svct1 [5]): 3.89

— publication PMC10011331, “Vitamin C transporter SVCT1 serves a physiological role as a urate importer: functional analyses and in vivo investigations” (Pflugers Archiv, 2023)
